Data taken from patent US20230271964A1, “5-AMINO-8-(4-PYRIDYL)-[1,2,4]TRIAZOLO[4,3-C]PYRIMIDIN-3-ONE COMPOUNDS FOR USE AGAINST CANCER” (ASTRAZENECA AB, priority 2020, published 2023).

Legend:
[1] = biological target: human adenosine A2A receptor (Homo sapiens (Human), UniProt P29274); test: Adenosine receptor inhibition binding assay, [3H]ZM241385, HEK293 A2A receptor membranes; settings: 1 nM [3H]ZM241385, HEK293-hA2A membranes, 25° C., 1 h; Ki from IC50 by Cheng-Prusoff
How it was run: (§1)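 Membranes from BacMam-transduced HEK293 cells (0.2 µg A2A; 1.4 µg A1) incubated 1 h at 25 °C with 1 nM radioligand; A2A in 50 mM Tris-HCl pH 7.4, A1 buffer adds 100 mM NaCl, 10 mM MgCl2. Nonspecific binding: 1 µM CGS 15943 (A2A) or 1 µM DPCPX (A1). Filtration, scintillation counting; IC50 converted to Ki via Cheng-Prusoff.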

[2] = biological target: human CB-1 cannabinoid receptor (Homo sapiens (Human), UniProt P21554); test: CB-1 receptor radioligand binding assay, [3H]CP 55940, transfected CHO cell membranes; settings: 0.5 nM [3H]CP 55940, CHO cell membranes, 120 min at 37° C.
human CB-1 cannabinoid receptor, sequence (P21554 whole entry): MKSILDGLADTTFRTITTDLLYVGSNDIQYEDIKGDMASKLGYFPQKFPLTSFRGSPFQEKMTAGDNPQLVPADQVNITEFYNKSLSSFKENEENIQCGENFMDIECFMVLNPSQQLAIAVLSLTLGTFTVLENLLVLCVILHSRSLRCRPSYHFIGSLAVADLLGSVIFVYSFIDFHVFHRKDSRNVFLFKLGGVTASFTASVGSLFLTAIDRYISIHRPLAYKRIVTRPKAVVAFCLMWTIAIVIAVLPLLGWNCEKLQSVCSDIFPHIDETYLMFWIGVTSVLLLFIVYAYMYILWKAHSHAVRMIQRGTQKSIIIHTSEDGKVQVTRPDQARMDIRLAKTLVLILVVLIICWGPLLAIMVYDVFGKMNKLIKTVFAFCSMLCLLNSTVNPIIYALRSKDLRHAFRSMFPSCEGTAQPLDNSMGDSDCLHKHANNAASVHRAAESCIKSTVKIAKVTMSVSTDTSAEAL
Description: Nonspecific binding is determined in the presence of 10 µM WIN 55212-2.
Following incubation, the samples are filtered rapidly under vacuum through glass fiber filters (GF/B, Packard) presoaked with 0.3% PEI and rinsed several times with an ice-cold buffer containing 50 mM Tris-HCl (pH 7.4) and 0.5% BSA using a 96-sample cell harvester (Unifilter, Packard). The filters are dried then counted for radioactivity in a scintillation counter (Topcount, Packard) using a scintillation cocktail (Microscint 0, Packard).
The standard reference compound is CP 55940 which is tested in each experiment at several concentrations to obtain a competition curve from which its IC50 is calculated.

[3] = biological target: human CB1 receptor (Homo sapiens (Human), UniProt P21554); test: CB1 receptor antagonism, agonist-induced cAMP modulation (HTRF) in transfected CHO cells; format: cell-based; settings: read-out: Antag IC50
human CB1 receptor, sequence (P21554 whole entry): as above
Description: Receptor antagonism: Evaluation of the antagonist activity of compounds at the human CB1 receptor expressed in transfected CHO cells, determined by measuring their effects on agonist-induced cAMP modulation using the HTRF detection method.
Thereafter, the reference agonist CP 55940 and the adenylyl cyclase activator NKH 477 are added at respective final concentrations of 3 nM and 3 µM.
For basal control measurements, CP 55940 is omitted from the wells containing 3 µM AM 281.
Following 20 min incubation at 37° C., the cells are lysed and the fluorescence acceptor (D2-labeled cAMP) and fluorescence donor (anti-cAMP antibody labeled with europium cryptate) are added.
After 60 min at room temperature, the fluorescence transfer is measured at λex=337 nm and λem=620 and 665 nm using a microplate reader (Rubystar, BMG). The cAMP concentration is determined by dividing the signal measured at 665 nm by that measured at 620 nm (ratio).
The standard reference antagonist is AM 281, which is tested in each experiment at several concentrations to generate a concentration-response curve from which its IC50 value is calculated.

[4] = biological target: human adenosine A1 receptor (Homo sapiens (Human), UniProt P30542); test: Adenosine receptor inhibition binding assay, [3H]DPCPX, A1 receptor membranes; settings: 1 nM [3H]DPCPX, 25° C., 1 h; Ki from IC50 by Cheng-Prusoff
human adenosine A1 receptor, sequence (P30542 whole entry): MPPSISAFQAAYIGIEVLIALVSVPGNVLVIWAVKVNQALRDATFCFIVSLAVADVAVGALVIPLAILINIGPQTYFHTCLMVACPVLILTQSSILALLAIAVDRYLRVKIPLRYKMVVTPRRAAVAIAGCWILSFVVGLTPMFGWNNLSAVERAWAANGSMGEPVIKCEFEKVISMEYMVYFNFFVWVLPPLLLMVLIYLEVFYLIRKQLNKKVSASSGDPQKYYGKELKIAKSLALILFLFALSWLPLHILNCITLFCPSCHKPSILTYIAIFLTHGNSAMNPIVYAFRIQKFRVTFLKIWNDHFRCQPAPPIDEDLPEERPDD
How it was run: as §1

human adenosine A2A receptor, sequence (P29274 whole entry): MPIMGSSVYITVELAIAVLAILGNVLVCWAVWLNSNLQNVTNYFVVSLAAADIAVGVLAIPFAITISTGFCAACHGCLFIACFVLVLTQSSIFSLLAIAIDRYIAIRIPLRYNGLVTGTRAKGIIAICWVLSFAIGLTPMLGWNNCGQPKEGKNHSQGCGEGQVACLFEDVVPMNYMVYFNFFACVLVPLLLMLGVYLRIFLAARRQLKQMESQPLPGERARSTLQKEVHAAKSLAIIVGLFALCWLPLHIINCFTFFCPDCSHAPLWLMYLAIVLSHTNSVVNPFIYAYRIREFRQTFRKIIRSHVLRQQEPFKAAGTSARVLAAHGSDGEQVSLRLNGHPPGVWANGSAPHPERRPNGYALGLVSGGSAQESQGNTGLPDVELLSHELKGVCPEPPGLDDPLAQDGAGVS

SMILES | A2A pKi [1] | Ki [2] | IC50 [3] | A1 pKi [4]
Cc1cc(-c2c(-c3ccccc3)nc(N)n3c(=O)n(Cc4cc(C)on4)nc23)cc(C)n1 [Example 1-14, 5-amino-8-(2,6-dimethyl-4-pyridyl)-2-[(5-methylisoxazol-3-yl)methyl]-7-phenyl-[1,2,4]triazolo[4,3-c]pyrimidin-3-one] | 9.2 | 50.5 µM | 29.2 µM | 6.6
Cc1cc(-c2c(-c3ccccc3)nc(N)n3c(=O)n(Cc4ncoc4C)nc23)cc(C)n1 [Example 1-22, 5-amino-8-(2,6-dimethyl-4-pyridyl)-2-[(5-methyloxazol-4-yl)methyl]-7-phenyl-[1,2,4]triazolo[4,3-c]pyrimidin-3-one] | 10.1 | 29.6 µM | > 100 µM | 7.4
Cc1cc(-c2c(-c3ccc(F)cc3)nc(N)n3c(=O)n(Cc4ncoc4C)nc23)cc(C)n1 [Example 1-31, 5-amino-8-(2,6-dimethyl-4-pyridyl)-7-(4-fluorophenyl)-2-[(5-methyloxazol-4-yl)methyl]-[1,2,4]triazolo[4,3-c]pyrimidin-3-one] | 9.6 | 26.1 µM | 12.1 µM | 7.0
Cc1cc(-c2c(-c3ccccc3)nc(N)n3c(=O)n(Cc4cc(C)on4)nc23)cc(CO)n1 [Example 1-43, 5-amino-8-[2-(hydroxymethyl)-6-methyl-4-pyridyl]-2-[(5-methylisoxazol-3-yl)methyl]-7-phenyl-[1,2,4]triazolo[4,3-c]pyrimidin-3-one] | 9.1 | 86.9 µM | > 100 µM | 6.7
Cc1cc(-c2c(-c3ccc(F)cc3)nc(N)n3c(=O)n(Cc4nccn4C)nc23)cc(CO)n1 [Example 1-50, 5-amino-7-(4-fluorophenyl)-8-[2-(hydroxymethyl)-6-methyl-4-pyridyl]-2-[(1-methylimidazol-2-yl)methyl]-[1,2,4]triazolo[4,3-c]pyrimidin-3-one] | 9.5 | 86.1 µM | > 100 µM | 6.5
Cc1cc(-c2c(-c3ccc(F)cc3)nc(N)n3c(=O)n(Cc4ncoc4C)nc23)cc(CO)n1 [Example 1-51, 5-amino-7-(4-fluorophenyl)-8-[2-(hydroxymethyl)-6-methyl-4-pyridyl]-2-[(5-methyloxazol-4-yl)methyl]-[1,2,4]triazolo[4,3-c]pyrimidin-3-one] | 9.4 | 80.3 µM | > 100 µM | 6.4
COc1cc(-c2c(-c3ccccc3)nc(N)n3c(=O)n(Cc4ncoc4C)nc23)cc(CO)n1 [Example 1-60, 5-amino-8-[2-(hydroxymethyl)-6-methoxy-4-pyridyl]-2-[(5-methyloxazol-4-yl)methyl]-7-phenyl-[1,2,4]triazolo[4,3-c]pyrimidin-3-one] | 9.9 | 66.7 µM | > 100 µM | 6.8
COc1cc(-c2c(-c3ccccc3)nc(N)n3c(=O)n(Cc4nccn4C)nc23)cc(CO)n1 [Example 1-61, 5-amino-8-[2-(hydroxymethyl)-6-methoxy-4-pyridyl]-2-[(1-methylimidazol-2-yl)methyl]-7-phenyl-[1,2,4]triazolo[4,3-c]pyrimidin-3-one] | 9.5 | – | > 100 µM | 6.8
COc1cc(-c2c(-c3ccc(F)cc3)nc(N)n3c(=O)n(Cc4ncoc4C)nc23)cc(CO)n1 [Example 1-64, 5-amino-7-(4-fluorophenyl)-8-[2-(hydroxymethyl)-6-methoxy-4-pyridyl]-2-[(5-methyloxazol-4-yl)methyl]-[1,2,4]triazolo[4,3-c]pyrimidin-3-one] | 9.6 | 40.8 µM | > 100 µM | 6.5
Cc1ocnc1Cn1nc2c(-c3cc(CO)nc(C(F)(F)F)c3)c(-c3ccccc3)nc(N)n2c1=O [Example 1-66, 5-amino-8-[2-(hydroxymethyl)-6-(trifluoromethyl)-4-pyridyl]-2-[(5-methyloxazol-4-yl)methyl]-7-phenyl-[1,2,4]triazolo[4,3-c]pyrimidin-3-one] | 9.7 | – | > 100 µM | 7.5
Cn1ccnc1Cn1nc2c(-c3cc(CO)nc(C(F)(F)F)c3)c(-c3ccccc3)nc(N)n2c1=O [Example 1-67, 5-amino-8-[2-(hydroxymethyl)-6-(trifluoromethyl)-4-pyridyl]-2-[(1-methylimidazol-2-yl)methyl]-7-phenyl-[1,2,4]triazolo[4,3-c]pyrimidin-3-one] | 10.0 | – | > 100 µM | 8.0
Cc1cc(-c2c(-c3ccccc3)nc(N)n3c(=O)n(C(CN)C4CCOC4)nc23)cc(C)n1 (centres unmarked) [Example 2-15, 5-amino-2-(2-amino-1-tetrahydrofuran-3-yl-ethyl)-8-(2,6-dimethyl-4-pyridyl)-7-phenyl-[1,2,4]triazolo[4,3-c]pyrimidin-3-one] | 7.5 | – | > 100 µM | 5.7
Cc1cc(-c2c(-c3ccccc3)nc(N)n3c(=O)n(C[C@@H]4CCCO4)nc23)cc(CO)n1 [Example 2-28, 5-amino-8-[2-(hydroxymethyl)-6-methyl-4-pyridyl]-7-phenyl-2-[[(2S)-tetrahydrofuran-2-yl]methyl]-[1,2,4]triazolo[4,3-c]pyrimidin-3-one] | 9.1 | – | > 100 µM | 6.5
Cc1cc(-c2c(-c3ccccc3)nc(N)n3c(=O)n(C[C@H]4CCCO4)nc23)cc(CO)n1 [Example 2-29, 5-amino-8-[2-(hydroxymethyl)-6-methyl-4-pyridyl]-7-phenyl-2-[[(2R)-tetrahydrofuran-2-yl]methyl]-[1,2,4]triazolo[4,3-c]pyrimidin-3-one] | 9.3 | – | > 100 µM | 6.4
Nc1nc(-c2ccccc2)c(-c2cc(Cl)nc(CO)c2)c2nn(C[C@H]3CCCO3)c(=O)n12 [Example 2-32, 5-amino-8-[2-chloro-6-(hydroxymethyl)-4-pyridyl]-7-phenyl-2-[[(2R)-tetrahydrofuran-2-yl]methyl]-[1,2,4]triazolo[4,3-c]pyrimidin-3-one] | 9.6 | – | > 100 µM | 6.6
COc1cc(-c2c(-c3ccccc3)nc(N)n3c(=O)n(C[C@H]4CCCO4)nc23)cc(CO)n1 [Example 2-35, 5-amino-8-[2-(hydroxymethyl)-6-methoxy-4-pyridyl]-7-phenyl-2-[[(2R)-tetrahydrofuran-2-yl]methyl]-[1,2,4]triazolo[4,3-c]pyrimidin-3-one] | 9.2 | – | > 100 µM | 5.9
Nc1nc(-c2ccccc2)c(-c2cc(CO)nc(C(F)(F)F)c2)c2nn(C[C@H]3CCCO3)c(=O)n12 [Example 2-38, 5-amino-8-[2-(hydroxymethyl)-6-(trifluoromethyl)-4-pyridyl]-7-phenyl-2-[[(2R)-tetrahydrofuran-2-yl]methyl]-[1,2,4]triazolo[4,3-c]pyrimidin-3-one] | 8.9 | – | > 100 µM | 6.3
